Assay results from US8367727B2, “Method of using abscisic acid to treat diseases and disorders” (priority 2006, dated 2013).
Marks after values point to notes of the source that are not given here.

Experiments:
db/db mice [1] = assay: Fasting blood glucose in db/db mice fed high-fat diets for 36 days; assay type: in vivo; conditions: day 36
Experimental: Four week-old, male BKS.Cg-+Lepr^db/+Lepr^db/OlaHsd (db/db) mice were purchased from Harlan Laboratories (Indianapolis, Ind.) and maintained at the animal facilities at Virginia Polytechnic Institute and State University in a room maintained at 75° F., with a 12:12 h light-dark cycle starting from 6:00 AM. All experimental procedures were approved by the Institutional Animal Care and Use Committee of Virginia Polytechnic Institute and State University and met or exceeded requirements of the Public Health Service/National Institutes of Health and the Animal Welfare Act.
Experiment 1: mice (n=25) were fed high-fat (>40% energy from fat), isocaloric, isonitrogenous diets containing 0, 100, 200, 400, and 800 mg of a racemic (±) ABA mixture/kg diet for 36 days (Table 1) (Sigma). These doses were chosen based on the standard concentrations of TZDs utilized in the treatment of NIDDM. The mice were weighed and their food intake was recorded daily. On day 36 of the study fasted mice (12 h) were bled through the caudal vein and fasting blood glucose concentrations were determined. To investigate the ability of ABA to normalize glucose concentrations, an intraperitoneal glucose tolerance test (IPGTT) was performed on day 36 on the fasted mice. Briefly, mice were bled at 0, 10, 25, and 45 minutes following the administration of glucose (2 g/kg) for measurement of plasma glucose levels. […] Weights were recorded for WAT, interscapular brown adipose tissue (BAT), and liver.
Experiment 2: The ABA dose utilized (100 mg ABA/kg) was based on the results obtained from the IPGTT of the ABA titration study (i.e., Experiment 1). Mice in experiment 2 were fed high-fat diets containing 0 or 100 mg ABA/kg for 36 days. Their body weights and food intake was recorded daily, and blood was collected on day 36 of the study during an IPGTT. This IPGTT included one additional 100 minutes time point. […] Weights were recorded for abdominal WAT, BAT, and liver.
Experiment 1 was a dose-titration study, where we fed 4-week old db/db mice (n=25) diabetogenic, high fat diets containing either 0, 100, 200, 400, or 800 mg racemic ABA mixture/kg diet. […] These in vivo results are in agreement with the transfection findings showing no difference in PPAR γ transactivation between 10 and 50 μM ABA.

Total lymphocytes = assay: Lymphocyte blastogenesis test (LBT); assay type: cell-based, mice; conditions: 100 mg ABA/kg diet
Experimental: Single cell suspensions were prepared from the spleen by gently crushing the spleens excised during the necropsy procedure between the frosted ends of microscope glass slides previously autoclaved. Tissue debris were removed by settling, erythrocytes were eliminated by hypotonic lysis and cells finally resuspended in complete RPMI (cRPMI, 10% fetal bovine serum (Hyclone, Logan, Utah), 25 mM HEPES buffer (Sigma, St. Louis, Mo.), 100 units/ml penicillin (Sigma), […] streptomycin (Sigma), 1 mM sodium pyruvate (Sigma), 1 mM nonessential aminoacids (Sigma), and 2 mM essential amino acids (Mediatech), and enumerated with a Coulter Z1 Single Particle Counter (Beckman Coulter, Miami, Fla.).
Wells of 96-well, round bottom microtiter plates were seeded with 2×10^5 splenocytes in a total volume of […] per well. Cells were cultured in cRPMI media with or without 2.5 μg/ml of Concanavalin A (Sigma) for 4 days. On day 4, […] of methyl-[^3Thymidine] was added to each well, and cells we incubate for 20 additional hours. Well contents were harvested onto glass fiber filters using cell harvester, and incorporated radioactivity measured by liquid scintillation counting. Samples were run in triplicate for each animal and ex-vivo treatment. Stimulation indices were calculated by dividing counts per minute of mitogen-stimulated wells by counts per minute of unstimulated wells.

db/db mice [2] = assay: WAT and skeletal muscle (SM) inflammation in db/db mice (Example 8); assay type: in vivo
Experimental: WAT Digestion. […] The floating portion (adipocyte-rich portion), was then removed and digested for an addition 60 minutes at 37° C.
Quantitative real-time reverse transcriptase PCR.
Complementary DNA (cDNA) concentrations for genes of interest were examined by real-time quantitative PCR using an iCycler IQ System and the iQ SYBR green supermix (BioRad). A standard curve was generated for each gene using 10-fold dilutions of purified amplicons starting at 5 pg of cDNA and used later to calculate the starting amount of target cDNA in the unknowns.

db/db mice [3] = assay: Fasting glucose, plasma MCP-1, plasma and liver triglycerides, hepatic steatosis, body weight in db/db mice (Example 9); assay type: in vivo
Experimental: Hepatic Steatosis, plasma MCP-1 and liver triglyceride content Liver specimens were excised and immediately fixed in 10% phosphate buffered neutral formalin, embedded in paraffin, cut at thicknesses of 5 microns and stained with hematoxylin and eosin (H&E) for histological examination. For hepatic triglyceride assessment, livers fragments (50-100 mg) were extracted for 16 hours at 4° C. with 4 ml CHCl/methanol (2:1, vol/vol). Two milliliters of 0.6% NaCl were then added to the extract, and the mixture was centrifuged at 2,000×g for 20 minutes. Lipids were isolated by nitrogen evaporation, dissolved in 100 μl isopropanol, and quantified with a triglyceride assay kit (Stanbio). The Triglyceride Assay Kit (Sigma) and Ready-set-go MCP-1 ELISA (ebioscience) were used to quantify plasma TGs and MCP-1, respectively, according to manufacturer's instructions.

[4] = system: colon inflammatory gene expression; assay: Colon gene expression by real-time quantitative PCR, DSS colitis; assay type: in vivo, mice
Source text: Complementary DNA (cDNA) concentrations for genes of interest were examined by real-time quantitative PCR using an iCycler IQ System and the iQ SYBR green supermix (Bio-Rad). A standard curve was generated for each gene using 10-fold dilutions of purified amplicons starting at 5 pg of cDNA and used later to calculate the starting amount of target cDNA in the unknown samples. SYBR green I is a general double-stranded DNA intercalating dye and may therefore detect nonspecific products and primer/dimers in addition to the amplicon of interest. In order to determine the number of products synthesized during the real-time PCR, a melting curve analysis was performed on each product. Real-time PCR was used to measure the starting amount of nucleic acid of each unknown sample of cDNA on the same 96-well plate. Results are presented as starting quantity of target cDNA (picograms) per microgram of total RNA.

[5] = db/db mice, 100 mg/kg diet, 36 days, vs control high-fat diet

## CC1=CC(=O)CC(C)(C)C1(O)/C=C/C(C)=C\C(=O)O (racemic) [ABA, abscisic acid]
db/db mice [1]; 100 to 800 mg ABA/kg diet
  fasting blood glucose (FBG) concentrations versus control diet: significantly lower
db/db mice [1]; Experiment 1, 100 mg ABA/kg diet
  Fasting glucose: 219.6^b mg/dL
db/db mice [1]; Experiment 1, 200 mg ABA/kg diet
  Fasting glucose: 210.2^b mg/dL
db/db mice [1]; Experiment 1, 400 mg ABA/kg diet
  Fasting glucose: 185.6^a mg/dL
db/db mice [1]; Experiment 1, 800 mg ABA/kg diet
  Fasting glucose: 202.0^b mg/dL
db/db mice [1]; Experiment 2, 100 mg ABA/kg diet
  Fasting glucose: 190.7^b mg/dL
Total lymphocytes
  LBT Total lymphocytes SI: 9.22
db/db mice [2]; ABA-fed mice
  MCP-1 expression in SM: significantly downregulated
  MCP-1 expression in stromal vascular cells (SVCs): significantly downregulated
db/db mice [2]; P=0.03
  TNF-α expression in SM, control-fed db/db versus ABA-fed db/db mice: approximately 2 fold
db/db mice [2]; db/db mice, 100 mg ABA/kg diet, 36 days
  IMAT adipocyte hypertrophy: significantly attenuated
db/db mice [2]; dietary ABA-supplementation, 36 days
  CCR2 and CCR5 macrophage infiltration into WAT: significantly decreased
db/db mice [3]; ABA-fed db/db mice
  MCP-1 protein concentrations in plasma: significantly decreased
  decrease in plasma MCP-1: 4 fold
  hepatic steatosis, liver histology: less severe
db/db mice [3]; [5]
  fasting blood glucose (FBG): significantly lower
  plasma TGs concentrations: significantly lower
db/db mice [3]; db/db mice, throughout the experiment
  food intake or body weights: did not alter food intake or body weights
db/db mice [3]; vs control diet
  amount of liver triglycerides: significantly lower
[4]; ABA-supplementation, DSS
  colonic expression of E-selectin: significantly lowered
  colonic expression of ICAM-1: no affect
  colonic expression of MAdCAM-1: significantly lowered
  colonic expression of PECAM-1: no affect
  colonic expression of VCAM-1: significantly lowered
[4]; ABA-treated mice
  colonic IL-6: significantly attenuated levels
  colonic MMP-9: significantly attenuated levels
  colonic iNOS: significantly attenuated levels
[4]; colons of ABA-fed mice
  colonic PPAR γ, CD36 and FABP4 expression: Neither colonic PPAR γ nor its responsive genes CD36, or FABP4 were significantly affected
